Laboratory results as given in US9809521B2, “Cannabidinoid derivatives” (priority 2011, dated 2017).
Where two headings read alike, the source gives them in different places.

How the values were obtained:
[1] = system: MDA-MB231 cells; assay: MTT cell proliferation/viability assay; details: for reversal of inhibition of cell viability by CB2 receptor antagonist SR14458: 2 days; for IC50: Homo sapiens
Description: (§1) The structure of O-1442 and O-1663 are almost identical with the exception of one R group. A smaller subset of the same analogs, including O-1442 and O-1663, were further screened for their ability to inhibit 4T1 breast cancer cell viability in anticipation of running in vivo experiments in immune competent mice (TABLE 5).
(§2) To directly test whether the O-1663 CBD analog could co-target two distinct cannabinoid antitumor pathways, the effects of CBD and the O-1663 CBD analog on cell viability with multiple antagonists were probed (FIG. 25). […] The ability of the O-1663 CBD analog and CBD to inhibit invasion was next compared (FIG. 25, panel C).

[2] = system: MDA-MB231 cells; assay: Boyden chamber invasion assay; format: cell-based, human; details: for IC50: Homo sapiens
Procedure: Boyden chamber MDA-MB231 cell invasion studies with CBD, Δ^9-THC, or WIN 55,212-2. Invasion is an important step towards breast cancer cell metastasis. Therefore, the effects of several cannabinoids were tested on their ability to modulate the migratory and invasiveness activity of the most aggressive human breast cancer cell line, MDA-MB231, in a reconstituted basement membrane in a Boyden chamber.
Assays using Id-1 promoter reporter transfected MDA-MB231 cells with CBD. To determine if Id-1 represented a key mediator of CBD effects in highly aggressive breast cancer cells, Id-1 was constitutively expressed into MDA-MB231 cells (+)Id-1 as described in FIG. 2. The ectopic Id-1 gene, which is not under the control of the endogenous promoter, was introduced in the cells using the pLXSN retroviral vector. As a control, cells were infected with an empty pLXSN vector (−)Id-1.
Boyden chamber MDA-MB231 cell invasion studies with CBD and O-1663 CBD analog. Boyden chamber studies for invasion by MDA-MB231 or U251 cells were performed with either CBD or O-1663 CBD analog.
as §2

[3] = system: Id-1; assay: Quantitative Western analysis of Id-1 protein expression in MDA-MB231 cells; format: cell-based, human; details: for Id-1 expression: 1 μM, both MDA-MB231 and 4T1 cells
Procedure: Quantitative Western analysis of Id-1 Expression in MDA-MB231 cells with CBD, Δ^9-THC, or WIN 55,212-2. The ability of CBD to regulate the expression of key genes that control breast cancer cell aggressiveness and invasiveness was determined.
SAR Analysis of Id-1 expression in MDA-MB231 cells with (Abn)-CBD receptor, Abn-CBD, O-1602, CP55,940, THC, CBN, or CBD. In order to determine the structure activity relationship (“SAR”) between cannabinoids and the inhibition of Id-1, MDA-MB231 cells were treated for two days with multiple cannabinoid compounds and Id-1 protein levels were assessed.
Quantitative Western analysis of Id-1 expression in MDA-MB231 cells and U251 cells with CBD or O-1663 CBD analog. […] MDA-MB231 breast cancer cells and U251 GBM cells were treated with 1.0 μM of cannabinoid for two days and then analyzed for Id-1 protein expression by quantitative Western analysis.

[4] = system: 4T1 cells; assay: 4T1 i.v. mouse model of breast cancer metastasis, treatment from one day after injection; format: in vivo; details: for total amount of metastatic foci: 1 mg/kg i.p., 2 days after injection; for effect of CB2 receptor antagonist SR14458 on anti-metastatic activity: 14 days
Procedure: In-vivo model of breast cancer metastases: 4T1 cells were injected directly into the tail vein of syngeneic BALB/c mice. […] Two days after i.v. injection of 4T1 cells, the tumor bearing mice were injected i.p. once a day with vehicle or compound (1 mg/kg).
The 4T1 intravenous (i.v.) mouse model of breast cancer metastasis to assess the activity of CBD in vivo was utilized. […] One day after i.v. injection of the breast cancer cells, mice were treated daily for two weeks by intra-peritoneal injection with vehicle (used as a control) or CBD at a dose range of 0.1 to 5 mg/kg.
A survival study was carried out (FIG. 4, panel C).
To provide further support for this hypothesis in vivo, mice bearing 4T1 tumors were treated with CBD and the O-1663 CBD analog in the presence of a CB2 receptor antagonist (FIG. 27, panels D and E). […] In addition, a combination treatment with CBD and THC was included.
In-vivo studies of breast cancer metastases with CBD or O-1663 CBD analog. 4T1 cells were injected into the tail vein of syngeneic BALB/c mice and then were intraperitoneal injected 2 days later with either vehicle, CBD (1 mg/kg), or O-1663 CBD analog (1 mg/kg).

[5] = system: 4T1 cells; assay: 4T1 i.v. mouse model, advanced stage metastasis, treatment from day seven; format: in vivo; details: for medium increase in survival: 0.5 or 1 mg/kg daily from seven days after injection
Procedure: To determine whether CBD could inhibit the formation of lung tumor foci in more advanced stages of metastasis, mice were treated at a time point where visual lung metastatic foci were already formed (as shown at day seven in FIG. 7, panel A). Mice were injected i.v. with 4T1 cells were kept for one week in order to allow for the formation of visible lung metastatic foci. The mice were then treated with CBD.
In-vivo late stage metastatic studies using a Xenograph mouse model for human breast cancer with CBD. […] Lung metastases were generated in BALB/c mice after tail vein injection of 20×10^5 mouse 4T1 cells. […] One week after the tail vein injection of 20×10^5 mouse 4T1 cells, the tumor bearing mice were injected i.p. once a day with vehicle or 1 mg/kg and 10 mg/kg CBD for seven days. Visible lung metastases were counted and measured by using a dissecting microscope.
The activity of CBD and the O-1663 CBD analog to inhibit the formation of lung tumor foci in more advanced stages of metastasis was then compared. Mice were treated at a time point where visual lung metastatic foci were already formed. Mice were injected i.v. with 4T1 cells and kept for one week in order to allow for the formation of visible lung metastatic foci. The mice were then treated with CBD and the O-1663 CBD analog. […] A survival study was then carried out where the activity of CBD to O-1663 CBD analog was compared (FIG. 28, panel C).
In-vivo advanced stage metastasis survivability studies in a mouse model with CBD or O-1663 CBD analog. To determine whether cannabinoids could inhibit the formation of lung tumor foci in more advanced stages of metastasis, we treated mice at a time point where visual lung metastatic foci were already formed (FIG. 30, panel A). Mice injected tail vein with 4T1 cell were kept for one week in order to allow for the formation of visual lung metastatic foci measuring up to 1 mm. The mice where then treated with drug for two months.

[6] = system: 4T1 cells; assay: Cell viability assay; format: cell-based, mouse; details: Mus musculus
Description: as §1

[7] = MDA-MB-231, read-out: IC50, MDA-MB231

Q: For C=C(C)[C@@H]1CCC(C)=C[C@H]1c1c(O)cc(CCCCC)cc1O [CBD, cannabidiol], which “reversal of inhibition of cell viability by CB1 receptor antagonist” value ([1]; 4T1 and MDA-MB231 cells) is on record?
A: had no effect on reversing the activity of CBD

Q: And the “reversal of inhibition of cell viability by ROS scavenger α-TOC” value ([1]; 4T1 and MDA-MB231 cells)?
A: able to reverse the inhibitory effects of CBD

Q: What about the “reversal of inhibition of cell viability by CB2 receptor antagonist SR14458” value ([1]; 4T1 and MDA-MB231 cells) of the same compound?
A: not significant

Q: And the IC50 ([1]; MDA-MB-231, 72 h, read-out: IC50, antiproliferative, MDA-MB231)?
A: 1300 nM

Q: What about the IC50 [1, 7] of the same compound?
A: 2200 nM

Q: And the IC50 ([1]; MDA-MB-231, read-out: IC50, MDA-MB231 cell viability)?
A: 1900 nM

Q: What about the “cell invasiveness, (+)Id-1 cells” value ([2]; 1.5 μM, two days, cells ectopically expressing Id-1) of the same compound?
A: did not inhibit cell invasiveness

Q: And the “cell invasiveness, control (−)Id-1 cells” value ([2]; 1.5 μM, two days, empty pLXSN vector)?
A: significant reduction in cell invasiveness

Q: What about the “invasion of MDA-MB231 cells” value ([2]; 0.1, 1.0 or 1.5 μM) of the same compound?
A: significantly reduced the invasion

Q: What about the IC50 ([2]; MDA-MB-231, 72 h, treated 3 days, modified Boyden chambers, read-out: IC50, invasion of MDA-MB231 cells) of the same compound?
A: 1000 nM

Q: What about the IC50 ([2]; MDA-MB-231, Boyden chamber, confidence limits 110-610, read-out: IC50 for invasion) of the same compound?
A: 260 nM

Q: What about the Id-1 expression [3] of the same compound?
A: partial reduction of Id-1 expression

Q: What about the “inhibition of Id-1 (structure activity relationship)” value ([3]; 1.5 μM, two days) of the same compound?
A: greatest inhibition of Id-1

Q: What about the Id-1 protein expression ([3]; 0.1, 1.0, 1.5 μM, three days) of the same compound?
A: concentration-dependent inhibition of Id-1 protein expression

Q: And the “concentration at which inhibitory effect on Id-1 expression occurred” value ([3]; three days)?
A: ≥ 100 nM

Q: And the “median increase in survival” value ([4]; 1 mg/kg daily from one day after injection)?
A: seven

Q: And the “total amount of metastatic foci” value [4]?
A: reduction of the total amount of metastatic foci

Q: And the “effect of CB2 receptor antagonist SR14458 on anti-metastatic activity” value ([4]; 1 mg/kg)?
A: not affected by co-administration with SR14458

Q: What about the “inhibition of total breast cancer metastasis” value ([4]; i.p. daily two weeks, 0.1 to 5 mg/kg) of the same compound?
A: up to 75%

Q: And the “EC50, total breast cancer metastasis” value ([4]; i.p. daily two weeks, CI=0.2-0.5)?
A: 0.3 mg/kg

Q: And the “reduction in the number of metastases” value ([5]; 1 mg/kg and 10 mg/kg i.p. for seven days, from one week after injection)?
A: ≥ 70%

Q: And the “median increase in survival” value ([5]; 1 mg/kg starting on day seven)?
A: only a day

Q: And the “growth of established lung metastatic foci” value ([5]; 0.5, 1 or 10 mg/kg i.p. for seven days)?
A: dose-dependently reduced the growth of established lung metastatic foci

Q: And the “medium increase in survival” value [5]?
A: 4 days

Q: What about the average median survival ([5]; treatment from one week after injection) of the same compound?
A: 38 days

Q: And the IC50 ([6]; 4T1, Table 5, read-out: IC50, 4T1 cell viability)?
A: 1800 nM

Q: CCCCC(C)(C)c1cc(O)c(C2CCC(C3CCCCC3)CC2)c(O)c1 (centres unmarked) [Compound O-1663] was tested. Which “reversal of inhibition of cell viability by CB2 receptor antagonist SR14458” value ([1]; 4T1 and MDA-MB231 cells) did it give?
A: partially reverse the inhibitory effects

Q: And the IC50 [1, 7]?
A: 1200 nM

Q: And the “fold more active than CBD, MDA-MB231 cell viability” value ([1]; second screen)?
A: 2.2 fold

Q: What about the “fold more potent than CBD at inhibiting invasion” value [2] of the same compound?
A: 1.7 fold

Q: What about the “invasion by the cancerous cells compared with CBD” value ([2]; 1.0 μM, two days, MDA-MB231 or U251 cells) of the same compound?
A: far superior to CBD in inhibiting invasion

Q: What about the IC50 ([2]; MDA-MB-231, 72 h, read-out: IC50, invasion of MDA-MB231 cells) of the same compound?
A: 600 nM

Q: And the “Id-1 protein expression compared with CBD” value ([3]; 1.0 μM, two days, MDA-MB231 and U251 cells)?
A: downregulated Id-1 protein expression to a far greater extent than CBD

Q: And the Id-1 expression [3]?
A: almost a complete down-regulation of Id-1 expression

Q: And the “animals with a metastatic foci >2 mm” value ([4]; 1 mg/kg)?
A: one of five animals

Q: What about the “total amount of metastatic foci” value [4] of the same compound?
A: reduction of the total amount of metastatic foci

Q: What about the “effect of CB2 receptor antagonist SR14458 on anti-metastatic activity” value ([4]; 1 mg/kg) of the same compound?
A: partially reversed by the antagonist

Q: And the “fold more potent than CBD at inhibiting lung metastatic foci>2 mm” value ([4]; mouse, in vivo)?
A: 7.0 fold

Q: What about the “fold more potent than CBD at inhibiting total metastasis” value ([4]; mouse, in vivo) of the same compound?
A: 2.3 fold

Q: And the “reduction of percent metastasis compared with CBD” value ([5]; 0.5 and 1 mg/kg)?
A: significantly more potent than CBD in reducing percent metastasis

Q: What about the “medium increase in survival” value [5] of the same compound?
A: 30 days

Q: What about the “mice without visible lung metastatic foci” value ([5]; dissection microscope) of the same compound?
A: 20%

Q: And the “mice still alive at end of study” value ([5]; treatment from day seven, 2 months)?
A: 50%

Q: What about the IC50 ([6]; 4T1, read-out: IC50, 4T1 cell viability) of the same compound?
A: 830 nM
